Biological target: human PDE1B enzyme (Homo sapiens (Human), UniProt Q01064)
Assay: IMAP TR-FRET PDE1B enzymatic assay
Format: biochemical
Conditions: negative log of half-maximal molar inhibitory concentration, 200 nM FAM-cAMP, values given as bins; for IC50: read-out: PDE1b (pIC50) (converted)
How it was run: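 Full-length GST-tagged human PDE1B (250 pg/well) in IMAP BSA buffer with 10 U/ml calmodulin and 2.5 mM CaCl2; compound pre-incubated 5 min at room temperature, then 200 nM (final) FAM-cAMP for 30 min. IMAP binding reagent/Tb added, 1 h; TR-FRET 520/490 ratio read. IC50 from sigmoidal dose-response fit.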

For `COc1ccc(C(C)NC(=O)c2c(C)oc3ncnc(NC4(C)CC4)c23)cc1F` (stereo not drawn) [Example 304, N-[1-(3-Fluoro-4-methoxyphenyl)ethyl]-6-methyl-4-[(1-methylcyclopropyl)amino]furo[2,3-d]pyrimidine-5-carboxamide], the “PDE1b (pIC50)” value was over 8.
For `COc1ccc([C@H](C)NC(=O)c2c(C)oc3ncnc(NC4(C)CC4)c23)c(F)c1` [Example 305, N-[(1S)-1-(2-Fluoro-4-methoxyphenyl)ethyl]-6-methyl-4-[(1-methylcyclopropyl)amino]furo[2,3-d]pyrimidine-5-carboxamide], the IC50 was 10 to 100 nM.
With `COc1ccc([C@@H](C)NC(=O)c2c(C)oc3ncnc(NC4(C)CC4)c23)c(F)c1` [Example 306, N-[(1R)-1-(2-Fluoro-4-methoxyphenyl)ethyl]-6-methyl-4-[(1-methylcyclopropyl)amino]furo[2,3-d]pyrimidine-5-carboxamide] the “PDE1b (pIC50)” value was over 8.
With `Cc1oc2ncnc(NC3(C)CC3)c2c1C(=O)N1CCc2cnc(F)nc2C1` [Example 307, 5-{2-Fluoro-5H,6H,7H,8H-pyrido[3,4-d]pyrimidine-7-carbonyl}-6-methyl-N-(1-methylcyclopropyl)furo[2,3-d]pyrimidin-4-amine] the IC50 was 10 to 100 nM.
`Cc1oc2ncnc(NC3(C)CC3)c2c1C(=O)N1CCN(c2nc(Cl)c(Cl)c(Cl)c2Cl)CC1` [Example 308, 6-Methyl-N-(1-methylcyclopropyl)-5-[4-(tetrachloropyridin-2-yl)piperazine-1-carbonyl]furo[2,3-d]pyrimidin-4-amine] gave an IC50 of 10 to 100 nM.
With `Cc1oc2ncnc(NC3(C)CC3)c2c1C(=O)N1CCC(c2ncccn2)CC1` [Example 309, 6-Methyl-N-(1-methylcyclopropyl)-5-[4-(pyrimidin-2-yl)piperidine-1-carbonyl]furo[2,3-d]pyrimidin-4-amine] the “PDE1b (pIC50)” value was over 8.
For `Cc1oc2ncnc(NC3(C)CC3)c2c1C(=O)NC1CCCc2cccnc21` (stereo not drawn) [Example 310, 6-Methyl-4-[(1-methylcyclopropyl)amino]-N-(5,6,7,8-tetrahydroquinolin-8-yl)furo[2,3-d]pyrimidine-5-carboxamide], the IC50 was 100 to 1000 nM.
`Cc1oc2ncnc(NC3(C)CC3)c2c1C(=O)NC1(c2cnccn2)CC1` [Example 311, 6-Methyl-4-[(1-methylcyclopropyl)amino]-N-[1-(pyrazin-2-yl)cyclopropyl]furo[2,3-d]pyrimidine-5-carboxamide] gave an IC50 of 10 to 100 nM.
For `Cc1oc2ncnc(NC3(C)CC3)c2c1C(=O)NCc1ccc(Cl)nc1` [Example 312, N-[(6-Chloropyridin-3-yl)methyl]-6-methyl-4-[(1-methylcyclopropyl)amino]furo[2,3-d]pyrimidine-5-carboxamide], the “PDE1b (pIC50)” value was over 8.
For `Cc1oc2ncnc(NC3(C)CC3)c2c1C(=O)NCc1cnc(Cl)nc1` [Example 313, N-[(2-Chloropyrimidin-5-yl)methyl]-6-methyl-4-[(1-methylcyclopropyl)amino]furo[2,3-d]pyrimidine-5-carboxamide], the IC50 was 10 to 100 nM.
Compound `Cc1oc2ncnc(NC3(C)CC3)c2c1C(=O)N1CC(F)(c2ccccc2)C1` [Example 314, 5-(3-Fluoro-3-phenylazetidine-1-carbonyl)-6-methyl-N-(1-methylcyclopropyl)furo[2,3-d]pyrimidin-4-amine] has an IC50 of 10 to 100 nM.
`Cc1oc2ncnc(NC3(C)CC3)c2c1C(=O)NC(C)c1cnccn1` (stereo not drawn) [Example 315, 6-Methyl-4-[(1-methylcyclopropyl)amino]-N-[1-(pyrazin-2-yl)ethyl]furo[2,3-d]pyrimidine-5-carboxamide] was tested, and the IC50 was 10 to 100 nM.
Work on `Cc1oc2ncnc(NC3(C)CC3)c2c1C(=O)NC1CCc2cccnc21` (stereo not drawn) [Example 316, N-{5H,6H,7H-Cyclopenta[b]pyridin-7-yl}-6-methyl-4-[(1-methylcyclopropyl)amino]furo[2,3-d]pyrimidine-5-carboxamide] yielded an IC50 of 100 to 1000 nM.
With `Cc1oc2ncnc(NC3(C)CC3)c2c1C(=O)NC(C)c1ccncn1` (stereo not drawn) [Example 317, 6-Methyl-4-[(1-methylcyclopropyl)amino]-N-[1-(pyrimidin-4-yl)ethyl]furo[2,3-d]pyrimidine-5-carboxamide] the IC50 was 10 to 100 nM.
Compound `Cc1oc2ncnc(NC3(C)CC3)c2c1C(=O)NCc1cc(Br)no1` [Example 318, N-[(3-Bromo-1,2-oxazol-5-yl)methyl]-6-methyl-4-[(1-methylcyclopropyl)amino]furo[2,3-d]pyrimidine-5-carboxamide] has an IC50 of 10 to 100 nM.
`Cc1cc(CNC(=O)c2c(C)oc3ncnc(NC4(C)CC4)c23)on1` [Example 319, 6-Methyl-N-[(3-methyl-1,2-oxazol-5-yl)methyl]-4-[(1-methylcyclopropyl)amino]furo[2,3-d]pyrimidine-5-carboxamide] gave an IC50 of 10 to 100 nM.
`Cc1oc2ncnc(NC3(C)CC3)c2c1C(=O)N1CCC(c2nccn2C)C1` (stereo not drawn) [Example 320, 6-Methyl-5-[3-(1-methyl-1H-imidazol-2-yl)pyrrolidine-1-carbonyl]-N-(1-methylcyclopropyl)furo[2,3-d]pyrimidin-4-amine] was tested, and the IC50 was 10 to 100 nM.
With `Cc1oc2ncnc(NC3(C)CC3)c2c1C(=O)N1CCC(c2cnn(C)c2)C1` (stereo not drawn) [Example 321, 6-Methyl-5-[3-(1-methyl-1H-pyrazol-4-yl)pyrrolidine-1-carbonyl]-N-(1-methylcyclopropyl)furo[2,3-d]pyrimidin-4-amine] the IC50 was 10 to 100 nM.
`CCc1cc(CNC(=O)c2c(C)oc3ncnc(NC4(C)CC4)c23)no1` [Example 322, N-[(5-Ethyl-1,2-oxazol-3-yl)methyl]-6-methyl-4-[(1-methylcyclopropyl)amino]furo[2,3-d]pyrimidine-5-carboxamide] was tested, and the “PDE1b (pIC50)” value was over 8.
With `Cc1oc2ncnc(NC3(C)CC3)c2c1C(=O)NCc1cc(C2CC2)on1` [Example 323, N-[(5-Cyclopropyl-1,2-oxazol-3-yl)methyl]-6-methyl-4-[(1-methylcyclopropyl)amino]furo[2,3-d]pyrimidine-5-carboxamide] the “PDE1b (pIC50)” value was over 8.
Compound `Cc1oc2ncnc(NC3(C)CC3)c2c1C(=O)NCc1cc(C(C)C)on1` [Example 324, 6-Methyl-4-[(1-methylcyclopropyl)amino]-N-{[5-(propan-2-yl)-1,2-oxazol-3-yl]methyl}furo[2,3-d]pyrimidine-5-carboxamide] has an IC50 of 10 to 100 nM.
`Cc1oc2ncnc(NC3(C)CC3)c2c1C(=O)NCc1cc(-c2ccc(F)cc2)on1` [Example 325, N-{[5-(4-Fluorophenyl)-1,2-oxazol-3-yl]methyl}-6-methyl-4-[(1-methylcyclopropyl)amino]furo[2,3-d]pyrimidine-5-carboxamide] gave an IC50 of 10 to 100 nM.
For `COc1ccc(-c2cc(CNC(=O)c3c(C)oc4ncnc(NC5(C)CC5)c34)no2)cc1` [Example 326, N-{[5-(4-Methoxyphenyl)-1,2-oxazol-3-yl]methyl}-6-methyl-4-[(1-methylcyclopropyl)amino]furo[2,3-d]pyrimidine-5-carboxamide], the IC50 was 10 to 100 nM.
`COc1cnc(N2CCN(C(=O)c3c(C)oc4ncnc(NC5(C)CC5)c34)CC2)nc1` [Example 327, 5-[4-(5-Methoxypyrimidin-2-yl)piperazine-1-carbonyl]-6-methyl-N-(1-methylcyclopropyl)furo[2,3-d]pyrimidin-4-amine] showed an IC50 of 10 to 100 nM.
`Cc1oc2ncnc(NC3(C)CC3)c2c1C(=O)NCc1cc(C(N)=O)on1` [Example 328, 3-[({6-Methyl-4-[(1-methylcyclopropyl)amino]furo[2,3-d]pyrimidin-5-yl}formamido)methyl]-1,2-oxazole-5-carboxamide] showed an IC50 of 10 to 100 nM.
With `Cc1oc2ncnc(NC3(C)CC3)c2c1C(=O)N1CCc2c(O)cccc2C1` [Example 329, 2-{6-Methyl-4-[(1-methylcyclopropyl)amino]furo[2,3-d]pyrimidine-5-carbonyl}-1,2,3,4-tetrahydroisoquinolin-5-ol] the “PDE1b (pIC50)” value was over 8.
Work on `Cc1oc2ncnc(NC3(C)CC3)c2c1C(=O)N1CCc2cc(O)ccc2C1` [Example 330, 2-{6-Methyl-4-[(1-methylcyclopropyl)amino]furo[2,3-d]pyrimidine-5-carbonyl}-1,2,3,4-tetrahydroisoquinolin-6-ol] yielded an IC50 of 10 to 100 nM.
With `Cc1oc2ncnc(NC3(C)CC3)c2c1C(=O)N1CCc2cccc(O)c2C1` [Example 331, 2-{6-Methyl-4-[(1-methylcyclopropyl)amino]furo[2,3-d]pyrimidine-5-carbonyl}-1,2,3,4-tetrahydroisoquinolin-8-ol] the IC50 was 10 to 100 nM.
Compound `Cc1oc2ncnc(NC3(C)CC3)c2c1C(=O)N1CCc2ccc(O)cc2C1` [Example 332, 2-{6-Methyl-4-[(1-methylcyclopropyl)amino]furo[2,3-d]pyrimidine-5-carbonyl}-1,2,3,4-tetrahydroisoquinolin-7-ol] has an IC50 of 10 to 100 nM.
Work on `Cc1oc2ncnc(NC3(C)CC3)c2c1C(=O)N1CCc2ncc(O)cc2C1` [Example 333, 6-{6-Methyl-4-[(1-methylcyclopropyl)amino]furo[2,3-d]pyrimidine-5-carbonyl}-5,6,7,8-tetrahydro-1,6-naphthyridin-3-ol] yielded an IC50 of 100 to 1000 nM.
In the case of `Cc1oc2ncnc(NC3(C)CC3)c2c1C(=O)N1CCC(c2ncc(F)cc2Cl)CC1` [Example 334, 5-[4-(3-Chloro-5-fluoropyridin-2-yl)piperidine-1-carbonyl]-6-methyl-N-(1-methylcyclopropyl)furo[2,3-d]pyrimidin-4-amine], the “PDE1b (pIC50)” value is reported as over 8.
For `Cc1oc2ncnc(NC3(C)CC3)c2c1C(=O)N1CCC(c2ncc(Cl)cn2)C1` (stereo not drawn) [Example 335, 5-[3-(5-Chloropyrimidin-2-yl)pyrrolidine-1-carbonyl]-6-methyl-N-(1-methylcyclopropyl)furo[2,3-d]pyrimidin-4-amine], the “PDE1b (pIC50)” value was over 8.
Work on `COc1cc(CNC(=O)c2c(C)oc3ncnc(NC4(C)CC4)c23)ccc1F` [Example 336, N-[(4-Fluoro-3-methoxyphenyl)methyl]-6-methyl-4-[(1-methylcyclopropyl)amino]furo[2,3-d]pyrimidine-5-carboxamide] yielded an IC50 of 10 to 100 nM.

From patent publication US20250145633A1, “SUBSTITUTED FURANOPYRIMIDINE COMPOUNDS AS PDE1 INHIBITORS” (Dart NeuroScience, LLC, priority 2017, published 2025)
